The nature of data set [1]: Log D (pH 7.4) by isocratic HPLC. Format: physicochemical. To be noted: YMC Pro C18 column, phosphate buffer pH 7.4/acetonitrile 45/55. How it is done: LogD is an indicator for absorption and lipophilicity for ionized compounds under defined pH conditions and is measured by applying an isocratic HPLC Method at pH 7.4.
The log D has been tested at pH 7.4. The testing has been carried out by the following method: Isocratic HPLC method: Column YMC Pro C18, 150 mm×4.0 mm, 3 μm, Eluent Phosphate buffer pH 7.4/acetonitrile (45/55, (v/v)), Runtime 15-60 min, Flow rate 1.2 ml/min, Detection wavelength: 220 nm

A short description of data set [2]: Storage stability at ambient temperature. The data set is classed as physicochemical. To be noted: glass bottles, more than two years, reanalysis by HPLC/MS and NMR.
The nature of data set [3]: Permeability in Caco-2 cells, apical to basolateral. Format: in vitro ADME. Further details: dose or concentration left out as unconfirmed. To be noted: human; 21d Caco-2 monolayer, apical pH 6.5 to basolateral pH 7.4, 60 minutes. The text has this:
The human adenocarcinoma cell line Caco-2 is used as an in vitro system to predict oral absorption. These cells serve as a model of small bowel tissue and permeation through these cells is a predictor for gastro-intestinal absorption. Further to being a model for oral absorption, permeability in Caco-2 cells may be predictive for the blood brain barrier permeability (P. Garberg et al.; Toxicology in vitro 19 (2005); 299-334). […] The permeability in Caco-2 cells has been tested by the following method:
The permeability of selected compounds of formula I across Caco-2 (21d Caco-2-culture) monolayer in the apical to basolateral direction is investigated. Control substances were ^3H-propranolol and ^3H-mannitol.
The nominal concentration of the test items is […]. The pH value is set to 6.5 for the apical transport medium and to 7.4 for the basolateral medium. Samples are obtained following 60 minutes (120 minutes for control samples) incubation from the basolateral receiver chamber. At sampling time approximately 600 μL of each well are transferred into an eppendorf vial and stored between −12° and −30° C. until HPLC or LC-MS/MS analysis. The control substances are quantified by liquid scintillation.
On the technique in general: Caco-2 monolayers are a common model of the intestinal barrier.

Data set [4] can be described thus: Solubility in Labrasol and TPGS/PG formulations. Format: physicochemical. How it is done:
Selected lipophilic carbonate compounds of formula I with promising Caco-2 permeabilities are formulated with different lipids/lipophilic excipients and/or micelles forming compounds in order to increase their solubilities. The following formulations are prepared by mixing the ingredients mentioned below: • i) Formulations comprising solubilizers in the form of lipides/lipophilic excipients: • ia) Formulation comprising Labrasol® and the selected compounds of Formula I • Labrasol®: • Caprylocaproyl macrogol-8-glyceride (CAS No. 85536-07-8 and 84963-88-2). This is a mixture of mono-, di- and triesters of glycerol and of PEG 400 with medium-chain fatty acids (C8-C10) which is marketed, for example, by Gattefossé under the mark Labrasol®; Labrasol® has an HLB value (hydrophil-lipophil-balance, Griffin, W. C.: Classification of surface active agents by HLB, J. Soc. Cosmet. 1, 1949) of 14 and has the following composition by weight:
• ib) Formulation comprising NanoSolve® 5401 (Lipoid GmbH, Germany) and the selected compounds of formula I • ic) Formulation comprising TPGS/PG in a weight ratio of 25% by weight of TPGS to 75% by weight of PG and the selected compounds of formula I. • PG: propylene glycol • TPGS: Vitamin E TPGS NF (d-α-tocopheryl polyethylene glycol 1000 succinate) which is marketed, for example, by Eastman Chemical Co • ii) Formulation comprising a micelles forming agent: • iia) Aqueous formulation comprising 30% by weight of Cremophor® RH 40 (relating to the weight of the aqueous phase) in water and the selected compounds of formula I • Cremophor® RH 40: • Generic names: • Polyoxyl 40 Hydrogenated Castor Oil (USP/NF). • Macrogol-Glycerolhydroxystearat (DAB). • Polyoxyethylenglyceroltrihydroxystearat (DAC). • Cremophor RH 40 is a non-ionic solubilizer and emulsifying agent obtained by reacting 45 moles of ethylene oxide with 1 mole of hydrogenated castor oil. The main constituent of Cremophor RH 40 is glycerol polyethylene glycol oxystearate, which, together with fatty acid glycerol polyglycol esters, forms the hydrophobic part of the product. The hydrophilic part consists of polyethylene glycols and glycerol ethoxylate. Cremophor RH 40 is a white to yellowish thin paste at 20° C. The HLB value lies between 14 and 16. Cremophor RH 40 is marketed by BASF AG.
The solubility of selected compounds of formula I in these formulations is measured and compared to the solubility of the compounds in 0.1N HCl (pH 1.0), PBS buffer (pH 7.4), and two simulated gastric fluids (i.e., FaSSIF (pH 6.5) simulating fasting sate and FeSSIF (pH 5.0) simulating fed state) (see above for details).

A short description of data set [5]: Solubility in 0.1 N HCl, PBS buffer, FaSSIF and FeSSIF. The data set is classed as physicochemical. To be noted: thermodynamic from solid. How it is done:
For testing solubility, saturated solutions of selected compounds of formula I are prepared in four different systems and compared to the solubility of entacapone. The solubility is tested in 0.1 N HCl (pH 1), PBS buffer (pH 7.4) and in two simulated gastric fluids, FaSSIF at pH 6.5 (for fasting state) and FeSSIF at pH 5.0 (for fed state) at ambient temperature. The content of the FaSSIF simulated gastric fluid is as follows:
The solubility testing is carried out by the following method: An excess amount of each compound is added to a 0.1 N HCl, PBS buffer, FeSSIF and FaSSIF. The suspensions are shaken for 10 min. After centrifugation the concentration is determined by HPLC. Reversed phase gradient HPLC method, column YMC Pro C8, 50 mm×4.0 mm, 3 μm, Eluent A: Water:trifluoroacetic acid (100:0.5 (v/v)), Eluent B: Acetonitrile:trifluoroacetic:acid (100:0.5 (v/v)). Column temperature 30° C., Flow rate 3.0 mL/min, Detection wavelength: 220 nm

Data set [6] can be described thus: Chemical hydrolysis stability at pH 1 and pH 7.4 (HPLC). The data set is classed as physicochemical. To be noted: 37° C., over 12 h. Here is the method: The stability of compounds of the present invention is tested at pH 1 and at pH 7.4. The testing is carried out by the following HPLC method:
Chemical hydrolysis rates t1/2 [h] of selected compounds of formula I are determined in 0.1 N HCl (pH 1) and PBS buffer (pH 7.4) solution. Solutions are prepared by dissolving an appropriate amount of compound in 0.1 N HCl and PBS buffer solution. Samples were withdrawn at designated time intervals and analysed for remaining prodrug by HPLC at 37° C. over 12 h.
Reversed phase gradient HPLC method, column YMC Pro C8, 50 mm×4.0 mm, 3 μm, Eluent A: Water:trifluoroacetic acid (100:0.5 (v/v)), Eluent B: Acetonitrile:trifluoroacetic:acid (100:0.5 (v/v)). Column temperature 30° C., Flow rate 3.0 mL/min, Detection wavelength: 220 nm
For evaluation, the peak area of the respective compound from the first injection is defined as 100% relative concentration. The peak areas of all other subsequent injections are calculated in percentage relating to this standard. (relative concentration in %). The relative concentrations are plotted in a logarithmic scale (ln) against the injection times. Based on the assumption of a first order kinetic, the rate constant and half life times (t1/2 [h]) can be calculated.

[7] abbreviates: Labrasol, oil or lipid, read-out: Solubility Labrasol ®.
Where [8] appears, read: 0.1 N HCl, pH 1, simulated gastric fluid, Table 11, maximum solubility, read-out: Solubility 0.1N HCl pH 1.0.
[9] abbreviates: 0.1 N HCl, pH 1, simulated gastric fluid, ambient temperature, shaken 10 min, read-out: Solubility 0.1N HCl Ph 1.0.
[10] abbreviates: FaSSIF, pH 6.5, fassif, Table 11, read-out: Solubility FaSSIF pH 6.5.
[11] abbreviates: FaSSIF, pH 6.5, fassif, fasting state fluid, ambient temperature, read-out: Solubility FaSSIF Ph 6.5.
Setting [12] is: FeSSIF, pH 5, fessif, Table 11, read-out: Solubility FeSSIF pH 5.0.
Where [13] appears, read: FeSSIF, pH 5, fessif, fed state fluid, ambient temperature, read-out: Solubility FeSSIF Ph 5.0.
Setting [14] is: PBS buffer, pH 7.4, aqueous buffer, Table 11, read-out: Solubility PBS pH 7.4.
[15] abbreviates: PBS buffer, pH 7.4, aqueous buffer, ambient temperature, read-out: Solubility PBS Ph 7.4.

Values after ≈ are worked out from the molar mass of the structure shown. Like-named read-outs stand apart in the source and are kept apart here.

Consider `CCN(CC)C(=O)/C(C#N)=C/c1cc(O)c(O)c([N+](=O)[O-])c1` [entacapone, (E)-N,N-diethyl-2-cyano-3-(3,4-dihydroxy-5-nitrophenyl)acrylamide], for which the chromatographic logD (in general, lipophilicity estimated from chromatographic retention) in data set [1] was 0.5. Further, the degradation on storage result in data set [2] is “without degradation”. For the same compound, the Papp A→B (as a rule, the apparent permeability from the apical to the basolateral side of a cell layer) at 60 min in data set [3] was 17 ×10⁻⁶ cm/s. In addition, in data set [4] (setting [7]), the solubility was 23000 µg/mL (≈ 75300 µM). For the same compound, the solubility at 10 min is 50 µg/mL (≈ 164 µM) in data set [5] (setting [8]); 50 µg/mL (≈ 164 µM) in data set [5] (setting [9]); 150 µg/mL (≈ 491 µM) in data set [5] (setting [10]); 150 µg/mL (≈ 491 µM) in data set [5] (setting [11]); 990 µg/mL (≈ 3240 µM) in data set [5] (setting [12]); 990 µg/mL (≈ 3240 µM) in data set [5] (setting [13]). The solubility at 10 min in data set [5] (setting [14]) and in data set [5] (setting [15]) was 1350 µg/mL (≈ 4420 µM) in each case. The “t1/2 at pH 1” value in data set [6] (0.1 N HCl) is listed as “stable”. The “t1/2 at pH 7.4” value in data set [6] (PBS buffer) is “stable”.
In data set [1], `CCC(CC)OC(=O)Oc1cc(/C=C(\C#N)C(=O)N(CC)CC)cc([N+](=O)[O-])c1O` [Compound 10, Carbonic acid 5-((E)-2-cyano-2-diethylcarbamoyl-vinyl)-2-hydroxy-3-nito-phenyl ester 1-ethyl-propyl ester] registered a chromatographic logD of 1.8. This compound displayed a Papp A→B at 60 min in data set [3] of 22.4 ×10⁻⁶ cm/s. In addition, the solubility in data set [4] (setting [7]) amounted to 22000 µg/mL (≈ 52500 µM); in data set [4] (organic solvent or mixture, 25% by weight TPGS, 75% by weight PG, read-out: Solubility TPGS/PG), 3900 µg/mL (≈ 9300 µM). Further, the solubility at 10 min was 30 µg/mL (≈ 71.5 µM) in data set [5] (setting [8]); 30 µg/mL (≈ 71.5 µM) in data set [5] (setting [9]); 840 µg/mL (≈ 2000 µM) in data set [5] (setting [10]); 840 µg/mL (≈ 2000 µM) in data set [5] (setting [11]); 1330 µg/mL (≈ 3170 µM) in data set [5] (setting [12]); 190 µg/mL (≈ 453 µM) in data set [5] (setting [13]). For the same compound, the values for the solubility at 10 min in data set [5] (setting [14]) and in data set [5] (setting [15]) were 190 µg/mL (≈ 453 µM) and 1330 µg/mL (≈ 3170 µM), respectively. The half-life in data set [6] (pH 1, 0.1 N HCl, read-out: t1/2 at pH 1 (converted)) is 38.5 h; in data set [6] (pH 7.4, PBS buffer, read-out: t1/2 at pH 7.4 (converted)) it was 38.5 h.

The record behind these values is US20080103191A1, “ENTACAPONE-DERIVATIVES” (priority 2006, published 2008).
